# In patent publication US8372874B2, “Compounds which selectively modulate the CB2 receptor” (Boehringer Ingelheim International GmbH, priority 2008, dated 2013):
# pEC50: −log10 of the molar value. Read-outs that look alike come from different tables or passages of the source.
# Columns and labels:
# human CB2R = biological target: T1, human CB2R (Homo sapiens, UniProt P34972); assay: CB2R mediated modulation of cAMP synthesis; format: cell-based
# T1 construct: host or cells: CHO cells
# Protocol: B. CB2R Mediated Modulation of cAMP Synthesis:
# Compounds of the invention are evaluated for their CB2 agonist or inverse agonistic activity in accordance with the following experimental method.
# (§1) CHO cells expressing human CB2R (Euroscreen) are plated at a density of 5000 cells per well in 384 well plates and incubated overnight at 37° C. After removing the media, the cells are treated with test compounds diluted in stimulation buffer containing 1 mM IBMX, 0.25% BSA and 10 uM Forskolin. The assay is incubated for 30 minutes at 37° C. Cells are lysed and the cAMP concentration is measured using DiscoverX-XS cAMP kit, following the manufacturer's protocol. In this setting, agonists will decrease forskolin induced production of cAMP while inverse agonists will further increase forskolin induced production of cAMP. EC50 of agonists are calculated as follows. The maximal amount of cAMP produced by forskolin compared to the level of cAMP inhibited by 1 uM CP55940 is defined as 100%. […] Data is analyzed using a four-parameter logistic model. (Model 205 of XLfit 4.0).
# human CB1R = biological target: T2, human CB1R (Homo sapiens, UniProt P21554); assay: CB1R mediated modulation of cAMP synthesis; format: cell-based
# T2 construct: host or cells: CHO cells
# T2 sequence (P21554 whole entry): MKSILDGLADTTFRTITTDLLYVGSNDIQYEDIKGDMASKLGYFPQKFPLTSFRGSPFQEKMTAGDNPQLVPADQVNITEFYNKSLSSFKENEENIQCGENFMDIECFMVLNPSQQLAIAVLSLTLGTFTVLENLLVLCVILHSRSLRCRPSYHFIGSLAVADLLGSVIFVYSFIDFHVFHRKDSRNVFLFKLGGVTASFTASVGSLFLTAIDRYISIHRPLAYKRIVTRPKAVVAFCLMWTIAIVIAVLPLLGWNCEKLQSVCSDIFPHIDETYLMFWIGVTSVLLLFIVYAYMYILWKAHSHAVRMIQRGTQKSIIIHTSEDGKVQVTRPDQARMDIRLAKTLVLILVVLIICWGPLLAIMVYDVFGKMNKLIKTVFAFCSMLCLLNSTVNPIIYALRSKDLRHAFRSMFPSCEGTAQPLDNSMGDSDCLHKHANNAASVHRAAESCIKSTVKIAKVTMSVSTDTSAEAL
# Protocol: C. CB1R Mediated Modulation of cAMP Synthesis:
# Compounds of the invention are evaluated for their CB1 agonist or inverse agonistic activity in accordance with the following experimental method.
# as §1, with “CB1R” for “CB2R”
# [1] = CHO cells expressing human CB2R, inhibition of forskolin-stimulated cAMP synthesis, read-out: CB2 EC50
# [2] = CHO cells expressing human CB1R, inhibition of forskolin-stimulated cAMP synthesis, read-out: CB1 EC50
# T1 sequence (P34972 whole entry): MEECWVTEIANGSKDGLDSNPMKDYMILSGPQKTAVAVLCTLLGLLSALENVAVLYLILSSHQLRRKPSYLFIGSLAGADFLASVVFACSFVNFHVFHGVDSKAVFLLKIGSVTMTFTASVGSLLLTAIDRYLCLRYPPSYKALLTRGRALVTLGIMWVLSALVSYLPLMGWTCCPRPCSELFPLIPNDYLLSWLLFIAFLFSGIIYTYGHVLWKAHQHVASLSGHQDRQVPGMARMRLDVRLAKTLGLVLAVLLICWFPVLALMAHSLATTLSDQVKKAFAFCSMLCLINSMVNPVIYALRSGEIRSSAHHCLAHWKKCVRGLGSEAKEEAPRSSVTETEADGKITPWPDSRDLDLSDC
SMILES,pEC50 (human CB2R),pEC50 (human CB1R),pEC50 (human CB2R; [1]),pEC50 (human CB1R; [2])
CC(O)C(C)(C)c1cc(NC(=O)C(C)(C)S(=O)(=O)C2CCOCC2)on1 (centres unmarked),7.85,< 4.30,,
CC(C)(COC(=O)c1ccccc1)c1cc(NC(=O)C(C)(C)S(=O)(=O)C2CCOCC2)on1,7.96,< 4.30,,
COCCOCC(C)(C)c1cc(NC(=O)C(C)(C)S(=O)(=O)C2CCOCC2)no1,7.82,< 4.30,,
C[C@H](O)C(C)(C)c1cc(NC(=O)C(C)(C)S(=O)(=O)c2ccc(F)cc2)on1,7.38,< 4.30,,
CO[C@@H](C)C(C)(C)c1cc(NC(=O)C(C)(C)S(=O)(=O)C2CCOCC2)no1,7.97,< 4.30,,
COCCOCC(C)(C)c1cc(NC(=O)C(C)(C)S(=O)(=O)CC2CCOCC2)no1,7.82,< 4.30,,
CCOCCOCC(C)(C)c1cc(NC(=O)C(C)(C)S(=O)(=O)C2CCOCC2)on1,8.82,< 4.30,,
CC(C)(C)C(=O)OCC(C)(C)c1cc(NC(=O)C(C)(C)S(=O)(=O)C2CCOCC2)on1,7.30,< 4.30,,
CCn1nc(NC(=O)C(C)(C)S(=O)(=O)C2CCOCC2)nc1-c1ccc(OC)cc1,7.11,< 3.30,,
COCCOC(C)(C)c1cc(NC(=O)C(C)(C)S(=O)(=O)C2CCOCC2)on1,7.02,< 4.30,,
C[C@H](O)C(C)(C)c1cc(NC(=O)C(C)(C)S(=O)(=O)C2CCOCC2)no1,7.60,< 4.30,,
CC(O)C(C)(C)c1cc(NC(=O)C(C)(C)S(=O)(=O)CCCC(F)(F)F)on1 (centres unmarked),7.51,< 4.70,,
CC(C)(C(=O)Nc1cc(C2CCOCC2)no1)S(=O)(=O)CCCC(F)(F)F,,,6.43,< 4.30
CC(C)(C(=O)Nc1cc(C2(COC3CCCCO3)CCCCC2)no1)S(=O)(=O)C1CCOCC1 (centres unmarked),7.66,< 4.30,,
COCCOCC1(c2cc(NC(=O)C(C)(C)S(=O)(=O)C3CCOCC3)on2)CCCCC1,7.23,< 4.30,,
CC[C@H](C)S(=O)(=O)C(C)(C)C(=O)Nc1cc(C(C)(C)[C@H](C)O)no1,,,6.60,< 4.30
CC(C)(COCCO)c1cc(NC(=O)C(C)(C)S(=O)(=O)C2CCOCC2)no1,8.62,< 4.30,,
C[C@@H](O)C(C)(C)c1cc(NC(=O)C(C)(C)S(=O)(=O)C2CCOCC2)on1,7.70,< 4.30,,
CC(C)(C(=O)Nc1cc(C2CCOC2)no1)S(=O)(=O)CCCC(F)(F)F (centres unmarked),,,6.76,< 4.30
C[C@H](O)C(C)(C)c1cc(NC(=O)C(C)(C)S(=O)(=O)C2CCN(S(C)(=O)=O)CC2)on1,,,6.97,< 4.30
CC(C)(C(=O)Nc1cc(C2CCCO2)no1)S(=O)(=O)C1CCOCC1 (centres unmarked),,,7.00,< 4.30
CC(C)(C(=O)Nc1cc(C2(COC3CCCCO3)CCCC2)no1)S(=O)(=O)c1ccc(F)cc1 (centres unmarked),8.28,< 4.30,,
CC[C@@H](O)C(C)(C)c1cc(NC(=O)C(C)(C)S(=O)(=O)C2CCOCC2)on1,7.15,< 4.30,,

SMILES,pEC50 (human CB2R),pEC50 (human CB1R),pEC50 (human CB2R; [1]),pEC50 (human CB1R; [2])
CCC(O)C(C)(C)c1cc(NC(=O)C(C)(C)S(=O)(=O)C2CCOCC2)on1 (centres unmarked),7.54,< 4.30,,
CC[C@H](O)C(C)(C)c1cc(NC(=O)C(C)(C)S(=O)(=O)C2CCOCC2)on1,7.33,< 4.30,,
CC(C)(OCCO)c1cc(NC(=O)C(C)(C)S(=O)(=O)C2CCOCC2)on1,7.55,< 4.30,,
CC(C)(C(=O)Nc1cc([C@@H]2CCCO2)no1)S(=O)(=O)C1CCOCC1,,,6.86,< 4.30
CC(C)(C(=O)Nc1cc(C2CCOCC2)no1)S(=O)(=O)C1CCOCC1,,,6.46,< 4.30
CCn1nc(NC(=O)C(C)(C)S(=O)(=O)C2CCOCC2)nc1-c1ccc(O)cc1,8.00,< 4.70,,
COCCOCC(C)(C)c1cc(NC(=O)C(C)(C)S(=O)(=O)C[C@H]2CCOC2)on1,7.01,< 4.30,,
CC(=O)OCC(C)(C)c1cc(NC(=O)C(C)(C)S(=O)(=O)C2CCOCC2)on1,8.38,< 4.30,,
C[C@H](O)C(C)(C)c1cc(NC(=O)C(C)(C)S(=O)(=O)C2CCOCC2)on1,7.85,< 4.30,,
CC(C)(O)C(C)(C)c1cc(NC(=O)C(C)(C)S(=O)(=O)C2CCOCC2)on1,,,6.94,< 4.30
C[C@H](O)C(C)(C)c1cc(NC(=O)C(C)(C)S(=O)(=O)CC2CCOCC2)no1,,,6.92,< 4.30
C[C@H](OC1CCCOC1)C(C)(C)c1cc(NC(=O)C(C)(C)S(=O)(=O)C2CCOCC2)on1 (some centres unmarked),8.55,< 4.30,,
COCCOCC(C)(C)c1cc(NC(=O)C(C)(C)S(=O)(=O)C2CCN(S(C)(=O)=O)CC2)on1,7.96,< 4.30,,
C[C@H](O)C(C)(C)c1cc(NC(=O)C(C)(C)S(=O)(=O)CC[C@@H]2CCOC2)no1,7.82,4.68,,
CO[C@@H](C)C(C)(C)c1cc(NC(=O)C(C)(C)S(=O)(=O)CC2CCOCC2)no1,7.52,< 4.30,,
COCCOCC(C)(C)c1cc(NC(=O)C(C)(C)S(=O)(=O)CCC(F)(F)F)on1,7.57,< 4.30,,
COc1ccc(COCC(C)(C)c2cc(NC(=O)C(C)(C)S(=O)(=O)CC3CCOCC3)on2)cc1,,,6.78,< 4.70
CC(C)C(O)C(C)(C)c1cc(NC(=O)C(C)(C)S(=O)(=O)C2CCOCC2)on1 (centres unmarked),,,6.82,< 4.30
COCCOCC(C)(C)c1cc(NC(=O)C(C)(C)S(=O)(=O)C2CCOCC2)on1,8.68,< 4.30,,
CC(C)(COCCO)c1cc(NC(=O)C(C)(C)S(=O)(=O)C2CCN(S(C)(=O)=O)CC2)on1,8.00,< 4.30,,
CC(C)CCS(=O)(=O)C(C)(C)C(=O)Nc1cc(C2CCOCC2)no1,7.01,< 4.70,,
CC1(c2cc(NC(=O)C(C)(C)S(=O)(=O)C3CCOCC3)on2)CCCO1 (centres unmarked),7.89,< 4.30,,
CC(C)(COCCO)c1cc(NC(=O)C(C)(C)S(=O)(=O)CC2CCOCC2)on1,7.89,< 4.30,,
